Structures can show the parent of a compound that is named as a salt.
Key:
[1] = MDZ metabolic activity in hepatic microsomes; type: in vitro ADME, mouse; details: cyp3a (KO/KO)/uPA(+/+)/SCID(+/+) chimeric mice [N2F1] compared with PXB mice; MDZ 50 umol/L, 0.1 mg/mL microsomes, 37° C., 5 minutes; 1'- and 4-hydroxylated metabolites
Method: (§1) On weeks 10 to 11 after transplantation (14-week-old), each of chimeric mice and non-transplanted cyp3a (KO/KO)/uPA(+/+)/SCID(+/+) mice [N2F1] was dissected and thus the liver, the small intestine, and blood were collected. The collected liver and small intestine were cut into appropriate sizes. The resulting pieces were immersed in 1 mL of RNA Later (Life Technologies Corporation, Cat No. AM7020), stored at 4° C. overnight, and then stored at −80° C. In addition, portions of the liver and the small intestine were embedded in an OCT compound (Tissue-Tek) for the preparation of frozen sections, and then cryopreserved with liquid nitrogen. Microsomes were prepared from the remaining small intestine and liver portions by procedures such as centrifugation. The thus prepared microsomes were stored at −80° C.
(§2) MDZ metabolic activity was determined using microsomes from the liver and the small intestine from each mouse prepared in Example 2 above. In an experiment using hepatic microsomes, MDZ with a final concentration of 50 umol/L was incubated in hepatic microsomes with a final concentration of 0.1 mg/mL at 37° C. for 5 minutes. […] 1′- and 4-hydroxylated metabolites of MDZ were measured using LC-MS/MS.

[2] = MDZ metabolic activity in small intestinal microsomes; type: in vitro ADME, mouse; details: MDZ 50 umol/L, 0.5 mg/mL microsomes, 37° C., 10 minutes
Method: as §1, §2

[3] = Metabolic studies for nefazodone hydrochloride (metabolite profiles in blood plasma and urine after peroral administration); type: in vivo, mouse
Method: Eight (8) mg of free/mL nefazodone hydrochloride suspended in 0.5% methylcellulose (resulting in a dose of […].) was forcibly administered perorally twice in a volume of 5 mL/kg b.w. at each instance to four (two male and two female mice) cyp3a (KO/KO)/uPA(+/+)/SCID(+/+) mice [N4F1] (week 8 after transplantation (11-week-old)) obtained in Example 8 above by transplantation of human hepatocytes.
Immediately after the first peroral administration of nefazodone hydrochloride, the animals were housed in metabolic cages. Urine was sampled at a time 0 to 8 hours after administration and at a time 8 to 24 hours after administration, at room temperature. After the sampling of urine, the 2nd peroral administration of nefazodone hydrochloride was performed. One (1) hour after administration, blood, small intestine, and liver samples were collected. Immediately after blood collection, centrifugation (1000×g, 4° C. for 10 minutes) was performed to prepare blood plasma. Immediately after collection, urine and blood plasma were stored at −80° C. The PXB mice and the SCID(+/+) mice were similarly treated, and thus blood plasma and urine samples were obtained.
Acetonitrile was added to the thus obtained blood plasma and urine, in an amount equivalent thereto, for deproteinization. Centrifugal filtration (Ultrafree-MC centrifugal filtration tube; 0.45 μm, 9500×g, 2 min, 4° C.) was then performed. The thus obtained filtrates were designated as analytical samples.

[4] = PXB mice, 10 mg free/kg peroral, 1 hour after 2nd administration
[5] = SCID(+/+) mice, 10 mg free/kg peroral, 1 hour after 2nd administration
[6] = cyp3a (KO/KO)/uPA(+/+)/SCID(+/+) chimeric mice [N4F1], 10 mg free/kg peroral, 1 hour after 2nd administration

| SMILES | MDZ metabolic activity in hepatic microsomes [1] | MDZ metabolic activity in small intestinal microsomes ([2]; cyp3a (KO/KO)/uPA(+/+)/SCID(+/+) chimeric mice [N2F1] compared with PXB mice) | MDZ metabolic activity in small intestinal microsomes ([2]; cyp3a (KO/KO)/uPA(+/+)/SCID(+/+) chimeric mice [N2F1] compared with non-transplanted cyp3a (KO/KO)/uPA(+/+)/SCID(+/+) mice [N2F1]) | metabolites detected in blood plasma [3, 4] | unchanged nefazodone in blood plasma [3, 4] | metabolites detected in urine ([3]; PXB mice, 10 mg free/kg peroral, urine 0 to 24 hours after administration) | metabolites detected in blood plasma [3, 5] | unchanged nefazodone in blood plasma [3, 5] | metabolites detected in urine ([3]; SCID(+/+) mice, 10 mg free/kg peroral, urine 0 to 24 hours after administration) | human-type metabolites detected in blood plasma, in addition to Triazoledione metabolite [3, 6] | unchanged nefazodone in blood plasma [3, 6] | human-type metabolites detected in urine ([3]; cyp3a (KO/KO)/uPA(+/+)/SCID(+/+) chimeric mice [N4F1], 10 mg free/kg peroral, urine 0 to 24 hours after administration) | metabolic profiles ([3]; cyp3a (KO/KO)/uPA(+/+)/SCID(+/+) chimeric mice, unlike PXB mice and SCID(+/+) mice) |
| --- | --- | --- | --- | --- | --- | --- | --- | --- | --- | --- | --- | --- | --- |
| Cc1ncc2n1-c1ccc(Cl)cc1C(c1ccccc1F)=NC2 [MDZ, Midazolam] | almost the same | lower than that of the PXB mice | almost the same as that of the non-transplanted | – | – | – | – | – | – | – | – | – | – |
| CCc1nn(CCCN2CCN(c3cccc(Cl)c3)CC2)c(=O)n1CCOc1ccccc1 [nefazodone hydrochloride] | – | – | – | Triazoledione metabolite alone was detected | not detected | metabolite C alone was detected | Triazoledione metabolite alone was detected | not detected | metabolite C alone was detected | OH-NEF and p-OH-NEF | detected | mCPP and metabolite D | reflected the human drug-metabolizing system |

Source: patent publication US9420769B2, “Chimeric non-human animal carrying human hepatocyte” (PHOENIXBIO CO., LTD., priority 2011, dated 2016)
